Columns and labels:
Type in all cases: functional
[1] = In vivo antitumor activity against ascites carcinoma in mouse
[2] = tested on: Ehrlich; assay: In vivo antitumor activity against Ehrlich ascite carcinoma in mouse
[3] = tested on: Ehrlich; assay: In vivo antitumor activity against mouse Ehrlich ascite carcinoma cells xenografted in mouse assessed as suppression of tumor growth at 70 mg/kg
[4] = tested on: CCRF S-180; assay: In vivo antitumor activity against mouse S180 cells xenografted in mouse assessed as suppression of tumor growth at 70 mg/kg
[5] = tested on: Lewis lung carcinoma cell line; assay: In vivo antitumor activity against mouse Lewis lung carcinoma cells xenografted in mouse assessed as suppression of tumor growth at 100 mg/kg

Work on `COc1ccc2cc1Oc1ccc(cc1)C[C@H]1c3cc(OC)c(OC)c(c3CCN1C)Oc1c(OC)c(OC)cc3c1[C@H](C2)N(C)CC3` [THALIDASINE] yielded an LD50 [1] of 300 mg/kg, an LD50 [2] of 520 mg/kg and an Activity [3] of 50%. For the same compound, the Activity [4] was 20% and the Activity [5] was 58%.

Reference: ChEMBL document CHEMBL1151407, “Bisbenzylisoquinoline Alkaloids” (1983)
